Data: patent publication US7745402B2, “Method of treating pancreatitis” (Lundbeck Inc., priority 2005, dated 2010)

Legend:
[1] = test system: caerulein-induced pancreatitis; assay: Caerulein-induced pancreatitis and its pulmonary complications after hemin pretreatment; assay type: in vivo, Balb/c mice; conditions: hemin 3× every other day, then caerulein hourly 7×; 12 h
Protocol: (A,B) Mice were injected intraperitoneally with hemin (H) or vehicle (V; 7 mice/group) every other day (3×; arrows) followed by injection with either saline (Sal) or caerulein (Cae) hourly (7×; arrows) and then harvesting of the pancreata and lungs at 12 h after first Sal or Cae injection. Sera were collected for amylase/lipase measurement. (C-E) Pancreatic and lung tissues (from panels A,B) were used to determine trypsin (pmol/mg protein) and myeloperoxidase (MPO; ng/mg wet tissue) enzyme activities and to assess extent of tissue injury. Data are presented as mean±SD. A representative hematoxylin and eosin staining of lung is shown (scale bar=50 μM).
Mice and pancreatitis models. Experiments and animal care were performed according to approved institutional guidelines. […]
Animal procedures. […] Immunofluorescence staining was performed as described (29) and images were analyzed using confocal microscopy. Total tissue lysates were prepared by homogenization in Laemmli sample buffer and analyzed by SDS-PAGE followed by transfer to membranes for blotting and protein visualization by enhanced chemiluminescence. Trypsin activity was determined using a fluorimetric assay and the substrate Boc-Gln-Ala-Arg-MCA (Peptides International Inc.; Louisville, Ky.), and comparison to a standard curve generated with purified trypsin as described. […]

[2] = test system: HO-1; assay: Double-staining of pancreas for HO-1 and cell markers after hemin and CDD; assay type: in vivo, mice; conditions: hemin pretreatment, 3 days of CDD
From the text: Pancreata of mice pretreated with hemin followed by 3 days of CDD feeding were isolated, sectioned, then double-stained using antibodies to HO-1 (a, d and g) and keratin polypeptide 8 (epithelial marker, b), vimentin (mesenchymal marker, e) or MJ7/18 (endothelial marker, h). Merging of the indicated images is shown in the right panels. Scale bar in panel i=20 μm. HO-1 staining of pancreas from mice treated with vehicle alone (without CDD) afforded background staining (inset of panel a).
Animal procedures. Mice were euthanized by CO2 inhalation then pancreata and lungs were rapidly removed, divided into 3-4 pieces, and blood was collected by intracardiac puncture. […] Immunofluorescence staining was performed as described (29) and images were analyzed using confocal microscopy. Total tissue lysates were prepared by homogenization in Laemmli sample buffer and analyzed by SDS-PAGE followed by transfer to membranes for blotting and protein visualization by enhanced chemiluminescence. Trypsin activity was determined using a fluorimetric assay and the substrate Boc-Gln-Ala-Arg-MCA (Peptides International Inc.; Louisville, Ky.), and comparison to a standard curve generated with purified trypsin as described. […] Lung injury after caerulein administration was assessed as previously described, based on neutrophilic infiltration, pulmonary edema, alveolar distension and collapse. […]

For Hemin, the “lung histology (hemorrhage, alveolar collapse)” value [1] was “marked hemorrhage and alveolar collapse in vehicle (a) compared to hemin (b) pretreated mice” and the “cell type of pancreatic HO-1 induction” value [2] was “occurs in non-epithelial cells”.
